Earlier results in patent US9758831B2, “Methods of predicting clinical course and treating multiple sclerosis” (Tel HaShomer Medical Research Infrastructure and Services …, priority 2009, dated 2017).

Legend:
RRN3/rpa43 complex = settings: in vivo
[1] = system: Experimental Autoimmune Encephalomyelitis; settings: in vivo

| Compound | association of RRN3 with RNA polymerase I (RRN3) | phosphorylation of RRN3 (RRN3) | formation of RRN3/rpa43 complex (RRN3/rpa43 complex) | T-cell inflammatory responses [1] | effect on Experimental Autoimmune Encephalomyelitis [1] | IFNγ production (T lymphocyte) | T cell apoptosis (T lymphocyte) | lymphocyte proliferation (T lymphocyte) | IL2 and IL2 receptor expression (T lymphocyte; activated T cells) | maturation, antigen processing and presentation of dendritic cells (dendritic cells) | TNF-a and IL-6 production (activated macrophages) |
| --- | --- | --- | --- | --- | --- | --- | --- | --- | --- | --- | --- |
| C[C@@H]1C[C@@H]([C@H](O)CC2CC(=O)NC(=O)C2)C(=O)[C@@H](C)C1 [Cycloheximide] | causes its dissociation from RNA polymerase I | inhibits the phosphorylation of RRN3 | inhibits the formation of a RRN3/rpa43 complex in vivo | – | – | – | – | – | – | – | – |
| CC(C)[C@]12O[C@H]1[C@@H]1O[C@]13[C@]1(O[C@H]1C[C@H]1C4=C(CC[C@@]13C)C(=O)OC4)[C@@H]2O [Triptolide, Trisoxireno(4b,5:6,7:8a,9)phenanthro(1,2-c)furan-1(3H)-one, 3b,4,4a,6,6a,7a,7b,8b,9,10-decahydro-6-hydroxy-8b-methyl-6a-(1-methylethyl)-, (3bS,4aS,5aS,6R,6aR,7aS,7bS,8aS,8bS)-] | – | – | – | modulates T-cell inflammatory responses | ameliorates Experimental Autoimmune Encephalomyelitis | inhibition | T cell apoptosis induction | inhibition of lymphocyte prolipheration | decreased | can inhibit | can suppress |
